For one data set, the target named is BCL-2 (Homo sapiens (Human), UniProt P10415). Briefly: Protein-protein interaction assay BCL-2/Bad BH3 peptide (BCL-2 assay, TR-FRET). Type of data set: binding. The settings on record: His-BCL-2 / Bad BH3 peptide, median. The procedure:
Assay 3 Protein-Protein Interaction Assay: BCL-2/Bad BH3 Peptide (BCL-2 Assay)
The dose-dependent inhibition by the compounds described in this invention of the interaction between BCL-2 and the BH3 domain of Bad (both human) was determined using a steady state binding competition assay with time-resolved fluorescence energy transfer (TR-FRET) readout. For that purpose BCL-2 (amino acids 1-211, C-terminal fused to a hexahistidine (6×His) tag (SEQ ID 5) and a synthetic Bad BH3-derived peptide of sequence Biotin-PEG2-PEG2-NLWAAQRYGRELRR-Nle-SDEFVDSFKK-amide (SEQ ID 4) served as protein receptor and tracer ligand respectively. The recombinant BCL-2 protein (expressed in E. coli) was purchased from BPS Bioscience (San Diego, Calif., USA). The Bad BH3-derived peptide can be obtained from e.g. Biosyntan (Berlin, Germany).
In the assay 11 different concentrations of each compound (0.1 nM, 0.33 nM, 1.1 nM, 3.8 nM, 13 nM, 44 nM, 0.15 μM, 0.51 μM, 1.7 μM, 5.9 μM and 20 μM) were typically measured as duplicates in the same microtiter plate. For that, 100-fold concentrated DMSO solutions were prepared by serial dilutions (1:3.4) of a 2 mM stock solution in a clear, 384-well microtiter plate (Greiner Bio-One, Frickenhausen, Germany). From there, 50 nl were transferred in a dark test plate (Greiner Bio-One, Frickenhausen, Germany). The assay was initiated by addition of 2 μl of a 2.5-fold concentrated His-BCL-2 solution (usually for a 1 nM end concentration in 5 μl reaction volume) in aqueous assay buffer [50 mM Tris/HCl pH 7, 100 mM sodium chloride (NaCl), 50 mM potassium fluoride (KF), 0.005% Tween-20, 2 mM DTT, 0.1% bovine gamma globulin (BGG)] to the compounds in the assay plate. This was followed by a 10-minute incubation step at 22° C. for pre-equilibration of the putative complex between His-BCL-2 and the compounds. After that, 3 μl of a 1.67-fold concentrated solution (in assay buffer) consisting of Bad BH3-derived peptide (1 nM end concentration) and TR-FRET detection reagents [1.67 nM anti-His-Eu cryptate and 1.67 nM streptavidin-XL665 (both from Cisbio Bioassays, Codolet, France)], were added.
The mixture was incubated in the dark for one hour at 22° C. and then overnight at 4° C. The formation of BCL-2/Bad complexes was determined by measuring the resonance energy transfer of the anti-His-Eu-cryptate antibody to the streptavidin-XL665 present in the reaction. For that purpose, the fluorescence emission at 620 nm and 665 nm after excitation at 330-350 nm was measured in a TR-FRET measuring instrument, for instance a Rubystar or a Pherastar (both from BMG Lab Technologies, Offenburg, Germany) or a Viewlux (Perkin-Elmer). The ratio of the emission at 665 nm and at 622 nm was used as indicator of the amount of BCL-2/Bad complexes present.
The resulting data (ratio) were normalized, taking 0% inhibition as the mean value of control measurements (usually 32 data points) where all reagents were included. In this case 50 nl DMSO were used instead of compounds. A 100% inhibition corresponded to the mean value of control measurements (usually 32 data points) where all reagents except BCL-2 were included. IC50 values were determined by regression analysis based on a 4 parameter equation (minimum, maximum, IC50, Hill; Y=Max+(Min−Max)/(1+(X/IC50)^HiII) using the Screener Software (Genedata).
On the technique in general: TR-FRET usually uses a lanthanide donor and a delayed reading to cut background.

The subject of data set [1] is SUDHL5. Briefly: Antiproliferation assay (Assay 7), SUDHL5. Type of data set: cell-based. The settings on record: CellTiter-Glo, median, read-out: Antiproli SUDHL5 [M] (median) IC50. The essentials: (§1)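 Luminescent ATP-based viability (CellTiter-Glo) measured after 72 hours of compound treatment at 37° C, alongside a time-zero plate read on the day of plating.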
In general terms: ATP-based viability assays read luminescence as a measure of living cells.

The next data set deals with AMO-1. The data set is described as follows: Antiproliferation assay (Assay 7), AMO-1. The data set is classed as cell-based. The settings on record: CellTiter-Glo, several values per example, read-out: Antiproli AMO-1 [M] IC50. Summed up: as §1
Data set [2] concerns SUDHL5. The data set is described as follows: Induction of cytotoxicity (Assay 6), SUDHL5. The settings on record: read-out: Cytotox SUDHL5 [M] (median) IC50, CellTiter-Glo, 5 hours, SUDHL5.

Several values for one entry are separate records, joined by “and”; a condition that tells them apart may be missing. Equal values may be shown once. Where a name gives a salt, the structure may show the parent alone. Read-outs that look alike come from different tables or passages of the source.

Sequence of BCL-2 (P10415 other isoform, or with tags, fused parts or gaps): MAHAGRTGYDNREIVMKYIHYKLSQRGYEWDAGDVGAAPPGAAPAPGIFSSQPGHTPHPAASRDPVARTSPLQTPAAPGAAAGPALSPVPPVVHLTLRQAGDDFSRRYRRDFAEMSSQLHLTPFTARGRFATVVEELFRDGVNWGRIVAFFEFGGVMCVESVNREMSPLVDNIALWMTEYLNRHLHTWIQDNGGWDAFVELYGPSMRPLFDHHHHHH

The IC50 is the concentration that inhibits the measured activity by half. With `Cc1c2c(nn1C)C(CCN1CCOCC1)N(C)S(=O)(=O)CCCn1c(C(=O)O)c(CCCOc3cccc4ccccc34)c3cccc-2c31` (single isomer, unassigned; enantiomer 1) [Example 45, 2,3,14-trimethyl-15-[2-(morpholin-4-yl)ethyl]-7-{3-[(naphthalen-1-yl)oxy]propyl}-13,13-dioxo-10,11,12,13,14,15-hexahydro-2H-13lambda^6-pyrazolo[3′,4′:4,5][1,2,8]thiadiazacycloundecino[6,7,8-hi]indole-8-carboxylic acid N-ethylethanamine Salt (Enantiomer 1)], the IC50 against BCL-2 was over 20 µM; in the data set on SUDHL5 [1] (72 hours) it was 1.7e-05 M; in the data set with AMO-1 (72 hours), 1.5e-05 M; in the data set on SUDHL5 [2] it was 2e-05 M.

With `CCc1c2c(nn1C)C(CCC1CCOCC1)N(C)S(=O)(=O)CCCn1c(C(=O)O)c(CCCOc3cccc4cc(F)ccc34)c3ccc(Cl)c-2c31` (single isomer, unassigned; enantiomer 2) [Example 62, (−)-4-chloro-3-ethyl-7-{3-[(6-fluoronaphthalen-1-yl)oxy]propyl}-2,14-dimethyl-15-[2-(oxan-4-yl)ethyl]-13,13-dioxo-10,11,12,13,14,15-hexahydro-2H-13lambda^6-pyrazolo[3′,4′:4,5][1,2,8]thiadiazacycloundecino[6,7,8-hi]indole-8-carboxylic acid (Enantiomer 2)], the IC50 stood at 14 µM against BCL-2, 3.7e-06 M in the data set with SUDHL5 [1] (72 hours), 3.8e-06 M with AMO-1 (72 hours) and 5.3e-06 M in the data set with SUDHL5 [2].

For `CCc1c2c(nn1C)CN(C)S(=O)(=O)CCCn1c(C(=O)O)c(CCCOc3cccc4c3CCC4)c3ccc(Cl)c-2c31` [Example 21, (rac)-13-Chloro-1-(3-((2,3-dihydro-1H-inden-4-yl)oxy)propyl)-12-ethyl-8,11-dimethyl-5,6,9,11-tetrahydro-4H,8H-pyrazolo[3′,4′:4,5][1]thia[2,8]diazacycloundecino[6,7,8-hi]indole-2-carboxylic acid 7,7-dioxide], the 50% inhibitory concentration (IC50) against BCL-2 was over 20 µM; with SUDHL5 [1] (Homo sapiens, SU-DHL-5, 72 h), 5.3e-07 M; with AMO-1 (Homo sapiens, AMO1, 72 h), 2.6e-06 M; with SUDHL5 [2] (Homo sapiens, SU-DHL-5, 5 h) it was 1e-06 M.

As for `Cc1c2c(nn1C)CN(C)S(=O)(=O)CCCn1c(C(=O)O)c(CCCOc3cccc4ccccc34)c3ccc(Cl)c-2c31` (racemic) [Example 4, (rac)-4-Chloro-2,3,14-trimethyl-7-{3-[(naphthalen-1-yl)oxy]propyl}-13,13-dioxo-10,11,12,13,14,15-hexahydro-2H-13λ^6-pyrazolo[3′,4′:4,5][1,2,8]thiadiazacycloundecino-[6,7,8-hi]indole-8-carboxylic acid], the IC50 against BCL-2 was over 20 µM; with SUDHL5 [1] (72 hours) it was 9.2e-07 M; in the data set with AMO-1 (Homo sapiens, AMO1, 72 h), 2.5e-06 M; with SUDHL5 [2], 8.1e-07 M.

In the case of `CCc1c2c(nn1C)CN(CCCN1CCCC1)S(=O)(=O)CCCn1c(C(=O)O)c(CCCOc3cccc4ccccc34)c3cccc-2c31` (racemic) [Example 16, (rac)-12-Ethyl-11-methyl-1-(3-(naphthalen-1-yloxy)propyl)-8-(3-(pyrrolidin-1-yl)propyl)-5,6,9,11-tetrahydro-4H,8H-pyrazolo[3′,4′:4,5][1]thia[2,8]diazacycloundecino[6,7,8-hi]indole-2-carboxylic acid 7,7-dioxide], the IC50 against BCL-2 was over 20 µM; in the data set with SUDHL5 [1] (Homo sapiens, SU-DHL-5, 72 h), 2.2e-05 M; in the data set with AMO-1 (Homo sapiens, AMO1, 72 h), over 3.3e-05 M; in the data set on SUDHL5 [2] (Homo sapiens, SU-DHL-5, 5 h) it was 3.2e-05 M.

For the molecule `CCc1c2c(nn1C)CN(C)S(=O)(=O)CCCn1c(C(=O)O)c(CCCOc3ccc(F)c4ccccc34)c3ccc(F)c-2c31` (racemic) [Example 35, (rac)-12-Ethyl-13-fluoro-1-(34(4-fluoronaphthalen-1-yl)oxy)propyl)-8,11-dimethyl-5,6,9,11-tetrahydro-4H,8H-pyrazolo[3′,4′:4,5][1]thia[2,8]diazacycloundecino[6,7,8-hi]indole-2-carboxylic acid 7,7-dioxide], the IC50 at BCL-2 is over 20 µM; in the data set on SUDHL5 [1] (Homo sapiens, SU-DHL-5, 72 h), 7.6e-07 M; with AMO-1 (72 hours) it was 6.6e-06 M; with AMO-1 (Homo sapiens, AMO1, 72 h), 5.2e-06 M; with SUDHL5 [2] (Homo sapiens, SU-DHL-5, 5 h), 1.6e-06 M.

For the molecule `CCc1c2c(nn1C)C(C)N(C)S(=O)(=O)CCCn1c(C(=O)O)c(CCCOc3cccc4ccccc34)c3cccc-2c31` (racemic) [Example 18, 12-Ethyl-8,9,11-trimethyl-1-(3-(naphthalen-1-yloxy)propyl)-5,6,9,11-tetrahydro-4H,8H-pyrazolo[3′,4′:4,5][1]thia[2,8]diazacycloundecino[6,7,8-hi]indole-2-carboxylic acid 7,7-dioxide (Mixture of Stereoisomers)], the IC50 on BCL-2 was over 20 µM; in the data set on SUDHL5 [1] (Homo sapiens, SU-DHL-5, 72 h), 3.7e-06 M; with AMO-1 (Homo sapiens, AMO1, 72 h), 9.6e-06 M; in the data set on SUDHL5 [2] (Homo sapiens, SU-DHL-5, 5 h) it was 3.5e-06 M.

In the case of `CCc1c2c(nn1C)CN(C)S(=O)(=O)CCCn1c(C(=O)O)c(CCCOc3ccc(F)c4ccccc34)c3ccc(Cl)c-2c31` [Example 24, (rac)-13-Chloro-12-ethyl-1-(34(4-fluoronaphthalen-1-yl)oxy)propyl)-8,11-dimethyl-4,5,6,8,9,11-hexahydropyrazolo[3′,4′:4,5][1,2,8]thiadiazacycloundecino[6,7,8-hi]indole-2-carboxylic acid 7,7-dioxide], the IC50 was over 20 µM on BCL-2; 1.2e-06 M in the data set with SUDHL5 [1] (Homo sapiens, SU-DHL-5, 72 h); 4.3e-06 M in the data set on AMO-1 (Homo sapiens, AMO1, 72 h); 1.3e-06 M in the data set on SUDHL5 [2] (Homo sapiens, SU-DHL-5, 5 h).

As to `Cc1cc(OCCCc2c(C(=O)O)n3c4c(c(F)ccc24)-c2c(nn(C)c2C)CN(C)S(=O)(=O)CCC3)cc(C)c1Cl` (racemic) [Example 28, (rac)-1-(3-(4-Chloro-3,5-dimethylphenoxy)propyl)-13-fluoro-8,11,12-trimethyl-5,6,9,11-tetrahydro-4H,8H-pyrazolo[3′,4′:4,5][1]thia[2,8]diazacycloundecino[6,7,8-hi]indole-2-carboxylic acid 7,7-dioxide], the IC50 is over 20 µM against BCL-2; 1.2e-06 M in the data set on SUDHL5 [1] (Homo sapiens, SU-DHL-5, 72 h); 1.2e-05 M with AMO-1 (Homo sapiens, AMO1, 72 h); 3.1e-06 M in the data set on SUDHL5 [2] (Homo sapiens, SU-DHL-5, 5 h).

For the molecule `CCc1c2c(nn1C)CN(C)S(=O)(=O)CCCn1c(C(=O)O)c(CCCOc3cccc4cc(F)ccc34)c3ccc(Cl)c-2c31` (single isomer, unassigned; enantiomer 1) [Example 36, (+)-4-chloro-3-ethyl-7-{3-[(6-fluoronaphthalen-1-yl)oxy]propyl}-2,14-dimethyl-13,13-dioxo-10,11,12,13,14,15-hexahydro-2H-13lambda^6-pyrazolo[3′,4′:4,5][1,2,8]thiadiazacycloundecino-[6,7,8-hi]indole-8-carboxylic acid (Enantiomer 1)], the IC50 against BCL-2 was 18 µM; in the data set with SUDHL5 [1] (72 hours), 1.4e-07 M; in the data set with AMO-1 (72 hours), 4.5e-07 M and 5.3e-07 M; in the data set with SUDHL5 [2] it was 1.6e-07 M.

The values above are taken from patent US11401278B2, “Macrocyclic indole derivatives” (The Broad Institute, Inc., priority 2017, dated 2022).
